Reference: patent US20240238300A1, “TREATMENT METHODS FOR SUBJECTS WITH CANCER HAVING AN ABERRATION IN EGFR AND/OR HER2” (TAIHO PHARMACEUTICAL CO., LTD., priority 2021, published 2024)

Columns and labels:
[1] = tested on: MDA-MB-175VII cells (DOC4-NRG1 fusion); experiment: growth inhibitory effect in NRG1 fusion-driven cancer cell line (GI50); format: cell-based; settings: Homo sapiens, mean of 3-4 independent experiments
Method: GI50 values were also determined for currently approved EGFR/HER2 tyrosine kinase inhibitors: afatinib, osimertinib, tucatinib, lapatinib, and neratinib, and one investigational drug (poziotinib). Mean values were determined from 3-4 independent experiments.

SK-BR-3 cells = experiment: feedback activation of HER3, downstream targets and apoptosis markers in SK-BR-3 cells; format: cell-based, human; settings: for phosphorylation of HER2, HER3, and their downstream targets: 3 hours; for phosphorylation of HER2, HER3, and their downstream targets / BIM and cleaved PARP: 30 to 300 nmol/L; for phosphorylation of HER2, HER3, and their downstream targets (AKT and ERK) / BIM and cleaved PARP: 48 hours
From the text: The effect of Compound (1) on feedback activation of HER3, its downstream targets (ERK and AKT), and apoptosis markers (BIM and cleaved PARP) in SK-BR-3 cells was investigated. In addition, the same information for lapatinib and tucatinib (a reversible inhibitor of HER2) was obtained.

[2] = tested on: MCF10A_HER2/insYVMA_v human mammary epithelial xenografts; experiment: antitumor effect in nude mice bearing MCF10A_HER2/insYVMA_v xenografts; format: in vivo; settings: Day 15
Method: The antitumor effect of Compound (1) was evaluated in a nude mouse xenograft model of MCF10A_HER2/insYVMA_v. MCF10A_HER2/insYVMA_v was established as stably growing cells in vivo derived from MCF10A HER2/insYVMA (a human mammary epithelial cell line engineered to express the HER2 exon 20 insertion mutation A775_G776insYVMA) xenografts subcutaneously transplanted into nude mice. Compound (1) suspensions (using 0.5% w/v HPMC as vehicle) were administered orally once daily to mice at doses of 7.8, 12.5, or 20.0 mg/kg/day for 14 days. The control group received 0.5% weight per volume (w/v) hydroxypropyl methylcellulose (HPMC) solution orally once daily for 14 days.
In addition, the antitumor effect of poziotinib (an irreversible inhibitor of EGFR, HER2, and HER4) was also evaluated using this model.

[3] = tested on: NCI-N87 human gastric carcinoma xenografts; experiment: antitumor effect in nude mice bearing NCI-N87 xenografts; format: in vivo; settings: Day 15
Method: The antitumor effect of Compound (1) was evaluated in nude mice bearing HER2-overexpressing NCI-N87 human gastric carcinoma xenografts. Compound (1) dosing suspensions using 0.5% w/v hydroxypropyl methylcellulose (HPMC) as vehicle were prepared at 4 dose levels (3.1, 6.3, 12.5, and 25.0 mg/kg/day) and administered orally once daily for 14 days. In addition, the antitumor effect of poziotinib, which is a pan-ErbB inhibitor and currently under clinical development for the treatment of cancer with epidermal growth factor receptor containing HER2 exon 20 insertion mutations, was also evaluated using this model. Poziotinib was administered orally once daily for 14 days at 2 dose levels (0.5 or 1.0 mg/kg/day). The control group received 0.5% w/v HPMC once daily for 14 days.

[4] = tested on: intracranial NCI-N87-luc human gastric carcinoma xenografts; experiment: intracranial antitumor effect, NCI-N87-luc xenografts; format: in vivo, nude mice; settings: Day 22
Method: The intracranial antitumor effect of Compound (1) was evaluated using Compound (1) in nude mice intracranially implanted with NCI-N87-luc cells, which were engineered to stably express the luciferase gene using the HER2-overexpressing NCI-N87 human gastric carcinoma cell line. Compound (1) dosing suspensions using 0.5% w/v HPMC as vehicle were prepared with Compound (1) at 3 dose levels (16.0, 20.0, or 25.0 mg/kg/day) and administered PO QD for 21 days. The control group received 0.5% weight per volume (w/v) hydroxypropyl methylcellulose (HPMC) solution orally once daily for 21 days. The antitumor effect of poziotinib was also evaluated using this model. Poziotinib was administered PO QD for 21 days at 2 dose levels (0.5 or 1.0 mg/kg/day).

[5] = tested on: NCI-N87 human gastric carcinoma (HER2 overexpressing) xenografts; experiment: refractory T-mab/P-mab model Step I; format: in vivo, male nude mice (BALB/cAJcl-mu/mu)
Method: Male nude mice (BALB/cAJcl-mu/mu) were implanted with NCI-N87 human gastric carcinoma (HER2 overexpressing); 1.0×10^7 cells in 100 μL of PBS were implanted subcutaneously per mouse.

[6] = tested on: NCI-N87 xenografts relapsed from T-DM1; settings: 10 mg/kg/day iv Day 1
Method: Male nude mice (BALB/cAJ1-mu/mu) were implanted with NCI-N87 human gastric carcinoma (HER2 overexpressing); 1.0×10^7 cells in 100 μL of PBS were implanted subcutaneously per mouse.
PO; or treated with an oral suspension of Compound (1) once per day at a dosage of 25 mg/kg/day, PO. The tumor volumes (TV, mm^3) and body weights of the mice were recorded.

[7] = tested on: NCI-N87 tumor fragment #6, clone 3; experiment: refractory T-DM1 monoclonal cell line model, comparison to DS-8201a; format: in vivo, male mice; settings: single iv dose of 10 mg/kg T-DM1
Method: The obtained cell line was implanted into BALB/cAJcl-mu/nu male mice (8.0×10^6 cells in 100 μL of PBS/mouse, subcutaneous) for the efficacy test.
The tumor volumes (TV, mm) and body weights of the mice were recorded.

[8] = Step I Day 22, 20 mg/kg/day (each) ip Days 1, 8, 15

Q: For `CN(C)C/C=C/C(=O)Nc1cc2c(Nc3ccc(F)c(Cl)c3)ncnc2cc1O[C@H]1CCOC1` [afatinib], which GI50 [1] is on record?
A: Its GI50 is 0.0056 ± 0.0027 µM.

Q: Which “phosphorylation of HER2, HER3, and their downstream targets” value (SK-BR-3 cells) does the source give for `CS(=O)(=O)CCNCc1ccc(-c2ccc3ncnc(Nc4ccc(OCc5cccc(F)c5)c(Cl)c4)c3c2)o1` [lapatinib] here?
A: The value was “inhibited the phosphorylation”.

Q: What about the “phosphorylation of HER2, HER3, and their downstream targets (AKT and ERK)” value (SK-BR-3 cells) of the same compound?
A: The value was “increased again”.

Q: What about the “BIM and cleaved PARP” value (SK-BR-3 cells) of the same compound?
A: Its value is “increased”.

Q: And the GI50 [1]?
A: The GI50 was 0.0895 ± 0.0395 µM.

Q: `CCOc1cc2ncc(C#N)c(Nc3ccc(OCc4ccccn4)c(Cl)c3)c2cc1NC(=O)/C=C/CN(C)C` [neratinib] was tested. Which GI50 [1] did it give?
A: Its GI50 is 0.003 ± 0.0006 µM.

Q: For `C=CC(=O)Nc1cc(Nc2nccc(-c3cn(C)c4ccccc34)n2)c(OC)cc1N(C)CCN(C)C` [osimertinib], which GI50 [1] is on record?
A: Its GI50 is 0.0294 ± 0.0015 µM.

Q: Which results are given for `C=CC(=O)N1CCC(Oc2cc3c(Nc4ccc(Cl)c(Cl)c4F)ncnc3cc2OC)CC1` [poziotinib, reference compound]?
A: T/C ratio of the mean tumor volume ([2]; 0.5 mg/kg/day): 29.0%; T/C ratio of the mean tumor volume ([2]; 1.0 mg/kg/day): 8.3%; T/C ratio of the mean tumor volumes ([3]; 0.5 mg/kg/day orally once daily 14 days): 44.2%; T/C ratio of the mean tumor volumes ([3]; 1.0 mg/kg/day orally once daily 14 days): 8.8%; T/C ratio of the mean total flux ([4]; 0.5 mg/kg/day PO QD 21 days): 39.0%; mean body weight change (BWC) ([4]; 0.5 mg/kg/day): 2.5%; T/C ratio of the mean total flux ([4]; 1.0 mg/kg/day PO QD 21 days): 21.1%; mean body weight change (BWC) ([4]; 1.0 mg/kg/day): −0.3%; GI50 [1]: 0.0003 ± 0.0002 µM

Q: `Cc1cc(Nc2ncnc3ccc(NC4=NC(C)(C)CO4)cc23)ccc1Oc1ccn2ncnc2c1` [tucatinib] was tested. Which “phosphorylation of HER2, HER3, and their downstream targets” value (SK-BR-3 cells) did it give?
A: Its value is “inhibited the phosphorylation”.

Q: And the “phosphorylation of HER2, HER3, and their downstream targets (AKT and ERK)” value (SK-BR-3 cells)?
A: The value was “increased again”.

Q: What about the “BIM and cleaved PARP” value (SK-BR-3 cells) of the same compound?
A: Its value is “increased”.

Q: And the GI50 [1]?
A: Its GI50 is 0.0276 ± 0.0055 µM.

Q: What does the source list for pertuzumab [P-mab]?
A: RTV (mean ± SE) ([5]; Day 22 to Day 0 (Step I), 20 mg/kg/day (each) ip Days 1, 8, 15): 4.0; T/C ([5]; Step I Day 22, vs non-treatment control, 20 mg/kg/day (each) ip Days 1, 8, 15): 76.5%; Number of Death [5, 8]: 0; TV (mean ± SE) [5, 8]: 1233.1 mm^3; BWC (mean ± SE) ([5]; mouse, in vivo, ip, 20 mg/kg/day): 10.20%

Q: With trastuzumab emtansine [T-DM1] as the compound, how does the “RTV (mean ± SE)” value ([6]; Day 22 to Day 1 (Step II)) read?
A: Its value is 1.73.

Q: And the “TV (mean ± SE)” value ([6]; Step II Day 22)?
A: Its value is 595.1 mm^3.

Q: And the T/C ([6]; Step II Day 22, reference group)?
A: Its T/C is 100.0%.

Q: And the “antitumor effect (tumor volume)” value [7]?
A: The value was “failing to inhibit tumor growth”.
